Laboratory results from US11952365B2, “Anti-viral compounds” (Aligos Therapeutics, Inc., priority 2020, dated 2024).
Where two headings read alike, the source gives them in different places.

Columns and labels:
[1] = in vitro; details: human
[2] = tested on: SARS-CoV-2-GHB-03021/2020; test: SARS-CoV-2 Infection Model in Huh7 Cells; assay type: cell-based; details: Severe acute respiratory syndrome coronavirus 2, Huh-7, 96 h, SARS-CoV-2, day 4 p.i., MTS
[3] = tested on: human beta-coronavirus OC43; test: microbe, parasite or virus in culture; assay type: cell-based; details: Betacoronavirus 1, OC43, HeLa, 144 h
[4] = Cytotoxicity plates without OC43 virus (cell-titer-glo); assay type: cell-based, human; details: human; HeLa cells without OC43 virus, class symbols
Method in brief: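 HeLa cells seeded overnight, then treated with serially diluted compounds in 2% FBS EMEM, uninfected, in parallel with the OC43 antiviral plates. Incubated 6 days at 33 °C; viability read by CellTiter-Glo luminescence.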

[5] = in vitro; details: African green monkey, VeroE6 + CP (CC50), Vero E6-eGFP cells with CP-100356, absence of virus, MTS
[6] = target: HRV3C (Human rhinovirus 14, UniProt P03303); test: HRV3C protease assay (duplex, SAMDI-MS); assay type: biochemical, HRV; details: 30 mins preincubation
Method in brief: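 Enzyme preincubated 30 min with compound at ambient temperature, then both biotinylated peptide substrates added (duplex with 3CLpro); 30 min reaction quenched with 0.5% formic acid (final). Product read by SAMDI-MS as product/internal-standard AUC ratio; IC50 from four-parameter fit.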

[7] = target: 3CLpro (Severe acute respiratory syndrome coronavirus 2, UniProt P0DTD1); test: SARS-CoV-2 3CLpro protease assay (duplex, SAMDI-MS); assay type: biochemical; design: For the duplex assay, 3CLpro and HRV3C was added; details: 3CLpro, 30 mins preincubation, class symbols; read-out: SARS-Cov-2 IC50
[8] = tested on: SARS-CoV-2-GHB-03021/2020; test: microbe, parasite or virus in culture; assay type: cell-based; details: Severe acute respiratory syndrome coronavirus 2, Vero C1008, 96 h; read-out: VeroE6 + CP (EC50)
[9] = target: T1, human cathepsin L (Homo sapiens, UniProt P07711); test: cathepsin L assay; assay type: biochemical; details: 10 pM human cathepsin L, Z-FR-AMC 2 μM, class symbols
T1 construct: purchased R&D Systems
Method in brief: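 Human cathepsin L at 10 pM was preincubated 30 min with compound, then reaction started with Z-FR-AMC (2 μM final). Fluorescence (355/460 nm) read every 2 min for 30 min; IC50 from four-parameter curve fit.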

[10] = OC43 in HeLa cells, 6 days at 33° C., class symbols, read-out: EC50
[11] = HRV3C, class symbols, read-out: HRV IC50
[12] = HRV3C, bound, read-out: HRV IC50

| SMILES | CC50 [1] | EC50 ([2]; class symbols) | EC50 [3] | CC50 at 6 days [4] | CC50 ([5]; numeric bounds) | IC50 ([6]; HRV IC50, HRV3C, bound) | IC50 [7] | EC50 [8] | IC50 [9] | IC50 ([6]; HRV IC50, HRV3C, class symbols) | EC50 ([2]; numeric bounds) | EC50 [3, 10] | IC50 [6, 11] | EC50 ([3]; OC43 in HeLa cells, 6 days at 33° C., bound, read-out: EC50) | CC50 ([5]; class symbols) | IC50 [6, 12] |
| --- | --- | --- | --- | --- | --- | --- | --- | --- | --- | --- | --- | --- | --- | --- | --- | --- |
| O=C1NCC[C@H]1C[C@H](NC(=O)[C@@H]1[C@H]2CCC[C@H]2CN1C(=O)c1nc2c(Cl)ccc(Cl)c2[nH]1)C(=O)CO [Compound 139, (1S,3aR,6aS)-2-(4,7-dichloro-1H-1,3-benzodiazole-2-carbonyl)-N-[(2S)-4-hydroxy-3-oxo-1-[(3S)-2-oxopyrrolidin-3-yl]butan-2-yl]-hexahydro-1H-cyclopenta[c]pyrrole-1-carboxamide] | > 50 µM | < 1 µM | 0.1 to 1 µM | > 10 µM | > 50 µM | > 10 µM | < 0.02 µM | < 1 µM | ≥ 10 µM |  |  |  |  |  |  |  |
| O=C(NC1CC1)C(=O)[C@H](C[C@@H]1CCNC1=O)NC(=O)[C@@H]1CC2(CCN1C(=O)c1cc3ccccc3[nH]1)CC2 [Compound 140, (S)—N—((S)-4-(cyclopropylamino)-3,4-dioxo-1-((S)-2-oxopyrrolidin-3-yl)butan-2-yl)-6-(1H-indole-2-carbonyl)-6-azaspiro[2.5] octane-5-carboxamide] | > 10 µM | 1 to 10 µM | 0.1 to 1 µM | > 10 µM | > 50 µM |  | 0.02 to 0.2 µM | 1 to 10 µM | ≥ 10 µM | 2 to 20 µM |  |  |  |  |  |  |
| O=C(NC1CC1)C(=O)[C@H](C[C@@H]1CCNC1=O)NC(=O)[C@@H]1CC2(CCN1C(=O)c1cc3c(Cl)cc(Cl)cc3[nH]1)CC2 [Compound 141] | > 10 µM |  |  | > 10 µM | > 50 µM |  | 0.02 to 0.2 µM | > 50 µM | 0.1 to 1 µM |  | > 50 µM | 0.1 to 1 µM | 2 to 20 µM |  |  |  |
| COc1cccc2[nH]c(C(=O)N3C[C@@H]4CCC[C@@H]4[C@H]3C(=O)N[C@H](C=O)CC3CCNS3(=O)=O)cc12 (stereo partly drawn) [Compound 142, (1S,3aR,6aS)—N-((2S)-1-(1,1-dioxidoisothiazolidin-5-yl)-3-oxopropan-2-yl)-2-(4-methoxy-1H-indole-2-carbonyl)octahydrocyclopenta[c]pyrrole-1-carboxamide] | > 10 µM |  |  | > 10 µM | > 50 µM | > 10 µM | 0.2 to 2 µM | > 50 µM | ≥ 10 µM |  | > 10 µM |  |  | > 10 µM |  |  |
| O=C1NCC[C@H]1C[C@H](NC(=O)[C@@H]1[C@H]2CCC[C@H]2CN1C(=O)c1cc2c(Cl)c(F)cc(F)c2[nH]1)C(=O)CO [Compound 143, (1S,3aR,6aS)-2-(4-chloro-5,7-difluoro-1H-indole-2-carbonyl)-N-[(2S)-4-hydroxy-3-oxo-1-[(3S)-2-oxopyrrolidin-3-yl]butan-2-yl]-hexahydro-1H-cyclopenta[c]pyrrole-1-carboxamide] | > 10 µM | < 1 µM | 0.1 to 1 µM | > 10 µM | > 50 µM | > 10 µM | 0.02 to 0.2 µM | < 1 µM | ≥ 10 µM |  |  |  |  |  |  |  |
| O=C1NCC[C@H]1C[C@H](NC(=O)[C@@H]1[C@H]2CCC[C@H]2CN1C(=O)c1ccc(-c2ccccc2)[nH]1)C(=O)CO [Compound 144, (1S,3aR,6aS)—N-[(2S)-4-hydroxy-3-oxo-1-[(3S)-2-oxopyrrolidin-3-yl]butan-2-yl]-2-(5-phenyl-1H-pyrrole-2-carbonyl)-hexahydro-1H-cyclopenta[c]pyrrole-1-carboxamide] | > 10 µM | 1 to 10 µM |  | > 10 µM | > 50 µM |  | 0.02 to 0.2 µM | < 1 µM | ≥ 10 µM |  |  | 0.1 to 1 µM | 2 to 20 µM |  |  |  |
| O=C(NC1CC1)C(=O)[C@H](C[C@@H]1CCNC1=O)NC(=O)[C@@H]1CC2(CCN1C(=O)c1cc3c(Cl)cccc3[nH]1)CC2 [Compound 145] | > 50 µM | 10 to 100 µM |  | > 10 µM | > 50 µM |  | < 0.02 µM | 10 to 100 µM | 0.1 to 1 µM |  |  | 1 to 10 µM | 0.02 to 0.2 µM |  |  |  |
| Cc1ccc2[nH]c(C(=O)N3CCC4(CC4)C[C@H]3C(=O)N[C@@H](C[C@@H]3CCNC3=O)C(=O)C(=O)NC3CC3)cc2c1 [Compound 146] | > 10 µM | 1 to 10 µM |  | > 10 µM | > 50 µM |  | < 0.02 µM | 1 to 10 µM | 1 to 10 µM |  |  | 0.1 to 1 µM | 2 to 20 µM |  |  |  |
| O=C(NC1CC1)C(=O)[C@H](C[C@@H]1CCNC1=O)NC(=O)[C@@H]1CC2(CCN1C(=O)c1cc3cc(F)ccc3[nH]1)CC2 [Compound 147] | > 50 µM | 10 to 100 µM |  | > 10 µM | > 50 µM |  | < 0.02 µM | 10 to 100 µM | ≥ 10 µM |  |  | 0.1 to 1 µM | 2 to 20 µM |  |  |  |
| O=C(NC1CC1)C(=O)[C@H](C[C@@H]1CCNC1=O)NC(=O)[C@@H]1[C@H]2CCC[C@H]2CN1C(=O)c1cc2c(Cl)cc(Cl)cc2[nH]1 [Compound 148] | > 10 µM | < 1 µM |  | > 10 µM | > 50 µM |  | 0.02 to 0.2 µM | < 1 µM | ≥ 10 µM |  |  | 0.1 to 1 µM | 0.2 to 2 µM |  |  |  |
| CC(C)COCCNC(=O)C(=O)[C@H](C[C@@H]1CCNC1=O)NC(=O)[C@@H]1[C@H]2CCC[C@H]2CN1C(=O)c1cc2c(Cl)cc(Cl)cc2[nH]1 [Compound 149, (1S,3aR,6aS)-2-(4,6-dichloro-1H-indole-2-carbonyl)-N—((S)-4-((2-isobutoxyethyl)amino)-3,4-dioxo-1-((S)-2-oxopyrrolidin-3-yl)butan-2-yl)octahydrocyclopenta[c]pyrrole-1-carboxamide] | 1 to 10 µM | < 1 µM | 0.1 to 1 µM | > 10 µM |  |  | 0.02 to 0.2 µM | < 1 µM | 1 to 10 µM | 2 to 20 µM |  |  |  |  | > 10 µM |  |
| COc1cccc2[nH]c(C(=O)N3C[C@@H]4CCC[C@@H]4[C@H]3C(=O)N[C@@H](C[C@@H]3CCNC3=O)C(=O)CO)c(F)c12 [Compound 151, (1S,3aR,6aS)-2-(3-fluoro-4-methoxy-1H-indole-2-carbonyl)-N—((S)-4-hydroxy-3-oxo-1-((S)-2-oxopyrrolidin-3-yl)butan-2-yl)octahydrocyclopenta[c]pyrrole-1-carboxamide] | > 50 µM | 1 to 10 µM | 1 to 10 µM | > 10 µM | > 50 µM | > 10 µM | 0.02 to 0.2 µM | 10 to 100 µM | ≥ 10 µM |  |  |  |  |  |  |  |
| CC(F)(F)c1cccc2[nH]c(C(=O)N3C[C@@H]4CCC[C@@H]4[C@H]3C(=O)N[C@@H](C[C@@H]3CCNC3=O)C(=O)CO)cc12 [Compound 152, (1S,3aR,6aS)-2-[4-(1,1-difluoroethyl)-1H-indole-2-carbonyl]-N-[(2S)-4-hydroxy-3-oxo-1-[(3S)-2-oxopyrrolidin-3-yl]butan-2-yl]-hexahydro-1H-cyclopenta[c]pyrrole-1-carboxamide] | > 50 µM | 10 to 100 µM |  | > 10 µM | > 50 µM |  | 0.02 to 0.2 µM | 10 to 100 µM | ≥ 10 µM |  |  | 1 to 10 µM |  |  |  | > 10 µM |
| CNc1cccc2[nH]c(C(=O)N3C[C@@H]4CCC[C@@H]4[C@H]3C(=O)N[C@@H](C[C@@H]3CCNC3=O)C(=O)CO)cc12 [Compound 153, (1S,3aR,6aS)—N-[(2S)-4-hydroxy-3-oxo-1-[(3S)-2-oxopyrrolidin-3-yl]butan-2-yl]-2-[4-(methylamino)-1H-indole-2-carbonyl]-hexahydro-1H-cyclopenta[c]pyrrole-1-carboxamide] | > 10 µM | 10 to 100 µM |  | > 10 µM | > 50 µM |  | 0.02 to 0.2 µM | 10 to 100 µM | ≥ 10 µM |  |  | 1 to 10 µM |  |  |  | > 10 µM |
